Laboratory results reported in PMC9317397, “Design and Synthesis of Hepatitis B Virus (HBV) Capsid Assembly Modulators and Evaluation of Their Activity in Mammalian Cell Model” (Pharmaceuticals, 2022).
pEC50: −log10 of the molar value. Entries after “also recorded” stand apart in the source; their conditions may differ. Read-outs that look alike come from different tables or passages of the source.

Key:
BHK-21 cells = experiment: Cytopathic effect (cell morphology, proliferation, trypan blue) in non-infected BHK-21 cells; format: cell-based, hamster; conditions: 24 h
Method: To define HAP compound non-toxic concentrations for initial studies, non-infected BHK-21 cells were incubated with compounds at four different concentrations for 24 h (25 μM, 50 μM, 100 μM, and 200 μM), and the cytopathic effects were evaluated by analysis of cell morphology and proliferation changes. […] 1c, 1j, 1k and 4a, and 7b. The reference comp.
The cytopathic effect of the compounds was estimated by phase contrast microscopy and standard trypan blue staining, and the cells were counted using an automatic cell counter (Invitrogen). BHK-21 and HepG2.2.15 cells were incubated for 24 h with the studied compounds at […] (25, 50, 100, 150 and 200 μM) and the cell morphology was controlled under microscope to evaluate cytopathic effects (Table 1, the highest non-toxic concentration).

[1] = MTT viability assay in BHK-21 cells; format: cell-based, hamster; conditions: hamster, 200 µM, read-out: Cell viability, percentage from untreated cells
Method: BHK-21 cells were incubated with different concentrations (6.125, 12.25, 25, 50, 100, and 200 µM) of the respective compounds and the cell viability was calculated as a percentage from untreated cells (100%) (Figure 7). In general, the results confirmed the morphological observation of relatively low cytotoxicity for tested compounds at concentrations below 100 µM.
Additionally, cell viability was determined by tetrazolium salt-based assay using the Vybrant MTT Cell Proliferation kit (Thermo Fisher Scientific, Waltham, MA, USA) or more sensitive CCK-8 kit (Abcam). First, the cell numbers and protocol were optimized for BHK-21 and HepG2.2.15 cells, as indicated in the MTT assay kit or CCK-8 reagent manufacturer’s protocol, and standard curves with OD values were created and evaluated.
In order to evaluate the toxicity of selected HAP compounds in the medium, 1.3 × 10^4 BHK-21 were seeded per well in 96-well plates and treated with the studied compounds for 24 h at concentrations 6.125; 12.25; 25; 50; 100; and 200 μM. Control cells without HAP compounds and MTT-free cell media were included in the experiments. The MTT test was performed according to the full protocol version (Thermo Fisher Scientific).

HBV [2] = conditions: HepG2.2.15 cells; for HBV DNA, % from control: six days, secreted virion DNA
[3] = target: HBV capsid assembly (full-length HBc protein, genotype D1) (Hepatitis B virus genotype D subtype ayw, UniProt P03146, A80I/T33N/V74G); experiment: HBV capsid assembly in SFV1/HBc-infected HBc-producing BHK-21 cells, native agarose gel anti-HBc immunoblot; format: cell-based; conditions: HBc-producing BHK-21 cells; for Type of effect on HBV capsid assembly in dose-dependent experiments: 0.1–50 µM, 24 h (Figure 6); for Effect on capsid production / mobility in initial test: 1–50 μM, 24 h (Figure 5); for Effect on Capsid Assembly / Effect on Capsid Assembly, Starting Concentration: 24 h, native agarose immunoblot
HBV capsid assembly (full-length HBc protein, genotype D1), sequence (P03146 whole entry A80I/T33N/V74G, looked up): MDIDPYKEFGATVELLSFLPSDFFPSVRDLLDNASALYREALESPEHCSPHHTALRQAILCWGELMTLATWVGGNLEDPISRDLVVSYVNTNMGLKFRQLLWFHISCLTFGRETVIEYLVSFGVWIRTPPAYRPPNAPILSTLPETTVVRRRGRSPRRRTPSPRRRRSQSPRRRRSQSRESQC

HepG2.2.15 cells = experiment: MTT viability test in HepG2.2.15 cells (TC50); format: cell-based, human; conditions: 48 h, 0–200 µM
Method: In order to compare the cytotoxicity of compounds 1d and 1e in HBV producing HepG2.2.15 cells, the toxic concentrations (TC50 values) were estimated (Figure 9B,C).
In order to calculate the median of the toxic concentration (TC50) of the compounds, 1.33 × 10^5 HepG2.2.15 cells per well were seeded into a 24-well plate. After 24 h, the cells were treated with the test compounds at different concentrations (0, 50, 100, 150, 200 μM) and incubated for 48 h at 37 °C. All experiments were carried out in three identical repeats and the coefficient of variation and standard deviation were calculated from at least two independent experiments.
The percent inhibition at each compound concentration was calculated by normalization of the signals to the signals from non-treated HepG2.2.15 cells. […] Data points and error bars represent the means and standard deviations from at least two independent experiments, respectively. Comparisons between data groups were performed using the unpaired t test, with p values < 0.05 being considered statistically significant.

HBV [4] = experiment: microbe, parasite or virus in culture; conditions: Hepatitis B virus, HepG2.2.15, 144 h, read-out: EC50 (50% reduction of HBV DNA), HepG2.2.15 cells, six days, 0–20 µM
[5] = non-infected BHK-21 cells, no noticeable cytopathic effect

| Compound | melting point [°C] | Effect on capsid production / mobility in initial test [3] | Effect on Capsid Assembly [3] | Effect on Capsid Assembly, Starting Concentration [3] [µM] | other results |
| --- | --- | --- | --- | --- | --- |
| CCOC(=O)C1=C(C)NC(c2ncc(F)cc2F)=NC1c1ccc(F)cc1 (stereo not shown) (hydrate or solvate) [1c] | 126 to 127 | – | – | – | – |
| CCOCCOC(=O)C1=C(C)NC(c2ncc(F)cc2F)=NC1c1ccc(F)cc1Cl (stereo not shown) (hydrate or solvate) [1d] | 143 to 144 | – | – | – | – |
| CC1=C(C(=O)OCCOC(C)C)C(c2ccc(F)cc2Cl)N=C(c2ncc(F)cc2F)N1 (stereo not shown) (hydrate or solvate) [1e] | 156 to 157 | – | – | – | – |
| CCCOCCOC(=O)C1=C(C)NC(c2ncc(F)cc2F)=NC1c1ccc(F)cc1Cl (stereo not shown) (hydrate or solvate) [1f] | 149 to 150 | – | – | – | – |
| CCCOCCOC(=O)C1=C(C)NC(c2ncc(F)cc2F)=NC1c1ccccc1OC(F)F (stereo not shown) (hydrate or solvate) [1g] | 164 to 165 | – | – | – | – |
| CC1=C(C(=O)Nc2ccccn2)C(c2ccc(F)cc2Cl)N=C(c2ncc(F)cc2F)N1 (stereo not shown) (hydrate or solvate) [1h] | 152 to 153 | – | – | – | – |
| COc1ccccc1NC(=O)C1=C(C)NC(c2ncc(F)cc2F)=NC1c1ccc(F)cc1Cl (stereo not shown) (hydrate or solvate) [1i] | 149 to 150 | – | – | – | – |
| CCOC(=O)C1=C(C)NC(c2nccs2)=NC1c1ccc(F)cc1 (stereo not shown) (hydrate or solvate) [1j] | 114 to 115 | – | – | – | – |
| CCOC(=O)C1=C(C)NC(c2nccs2)=NC1c1ccccc1 (stereo not shown) (hydrate or solvate) [1k] | 129 to 130 | – | – | – | – |
| CC1=C(C(=O)O)C(c2ccc(F)cc2Cl)N=C(c2ncc(F)cc2F)N1 (stereo not shown) [1b] | – | inhibitory effect | Dose dependent capsid signal decrease | 10 | The Highest Non-Toxic Concentration (BHK-21 cells; [5]): 50 µM; viability at 24 h, 200 µM [1]: > 90%; HBV DNA, % from control (HBV [2]; 10 µM): 74.3%; Type of effect on HBV capsid assembly in dose-dependent experiments [3]: dose-dependent HBc signal decrease |
| CCOC(=O)C1=C(C)NC(c2ncc(F)cc2F)=NC1c1ccc(F)cc1 (stereo not shown) [1c] | – | inhibitory effect | Capsid signal decrease | 5 | – |
| CC1=C(C(=O)OCCOC(C)C)C(c2ccc(F)cc2Cl)N=C(c2ncc(F)cc2F)N1 (stereo not shown) [1e] | – | misfolding of the HBV capsid | Dose dependent capsid signal decrease | 10 | The Highest Non-Toxic Concentration (BHK-21 cells; [5]): 100 µM; viability at 24 h, 200 µM [1]: > 90%; SI (TC50/EC50) (HBV [2]): 11; HBV DNA, % from control (HBV [2]; 20 µM): 6.3%; Decrease in the amount of HBV virion release compared with control (HBV [2]; Figure 8): ≤ 93.5%; TC50 (HepG2.2.15 cells): 98 µM; pEC50 (HBV [4]): 5.04; Effect on capsids at lower concentrations ([3]; 5 μM and 10 μM): capsid stabilization and accumulation; Effect on capsids at higher concentrations ([3]; 20 μM and 50 μM): capsids were almost non-detectable; Type of effect on HBV capsid assembly in dose-dependent experiments [3]: dose-dependent HBc signal decrease |
| CCCOCCOC(=O)C1=C(C)NC(c2ncc(F)cc2F)=NC1c1ccc(F)cc1Cl (stereo not shown) [1f] | – | misfolding of the HBV capsid | HBc accumulation, aggregates/or incorrect capsid structures | 10 | The Highest Non-Toxic Concentration (BHK-21 cells; [5]): 100 µM; viability at 24 h, 200 µM [1]: > 90%; HBV DNA, % from control (HBV [2]; 20 µM): 52.5%; Type of effect on HBV capsid assembly in dose-dependent experiments [3]: dose-dependent HBc products accumulation |
| CCCOCCOC(=O)C1=C(C)NC(c2ncc(F)cc2F)=NC1c1ccccc1OC(F)F (stereo not shown) [1g] | – | did not induce a significant effect on the capsid mobility; also recorded: some increase in capsid band signal | Insignificant capsid amount increases | – | The Highest Non-Toxic Concentration (BHK-21 cells; [5]): 50 µM |
| CC1=C(C(=O)Nc2ccccn2)C(c2ccc(F)cc2Cl)N=C(c2ncc(F)cc2F)N1 (stereo not shown) [1h] | – | – | Dose dependent capsid signal decrease | 20 | The Highest Non-Toxic Concentration (BHK-21 cells; [5]): 150 µM; viability at 24 h, 200 µM [1]: > 90%; Type of effect on HBV capsid assembly in dose-dependent experiments [3]: dose-dependent HBc signal decrease |
| COc1ccccc1NC(=O)C1=C(C)NC(c2ncc(F)cc2F)=NC1c1ccc(F)cc1Cl (stereo not shown) [1i] | – | – | Dose dependent capsid signal decrease | 20 | The Highest Non-Toxic Concentration (BHK-21 cells; [5]): 50 µM; viability at 24 h, 200 µM [1]: 71%; Type of effect on HBV capsid assembly in dose-dependent experiments [3]: dose-dependent HBc signal decrease |
| CCOC(=O)C1=C(C)NC(c2nccs2)=NC1c1ccc(F)cc1 (stereo not shown) [1j] | – | misfolding of the HBV capsid | HBc accumulation, aggregates/or incorrect capsid structures | 5 | Type of effect on HBV capsid assembly in dose-dependent experiments [3]: dose-dependent HBc products accumulation |
| CCOC(=O)C1=C(C)NC(c2nccs2)=NC1c1ccccc1 (stereo not shown) [1k] | – | misfolding of the HBV capsid | Dose dependent HBc accumulation, aggregates/or incorrect capsid structures | 1 | – |
| COC(=O)C1=C(C[n+]2ccccc2)NC(c2ncc(F)cc2F)=NC1c1ccc(F)cc1Cl (stereo not shown) [3a] | 173 to 174 | did not induce a significant effect on the capsid mobility | No effect | – | – |
| COC(=O)C1=C(C[N+]2(C)CCCC2)NC(c2ncc(F)cc2F)=NC1c1ccc(F)cc1Cl (stereo not shown) [3b] | 167 to 168 | did not induce a significant effect on the capsid mobility | No effect | – | – |
| COC(=O)C1=C(C[N+]2(C)CCOCC2)NC(c2ncc(F)cc2F)=NC1c1ccc(F)cc1Cl (stereo not shown) [3c] | 181 to 182 | did not induce a significant effect on the capsid mobility | No effect | – | The Highest Non-Toxic Concentration (BHK-21 cells; [5]): 150 µM |
| COC(=O)C1=C(C[N+]23CCC(CC2)C(O)C3)NC(c2ncc(F)cc2F)=NC1c1ccc(F)cc1Cl (stereo not shown) [3d] | – | inhibitory effect | Capsid signal decrease, possible changes in NS packaging | – | The Highest Non-Toxic Concentration (BHK-21 cells; hamster): 100 µM |
| CCOC(=O)c1c(C)nc(-c2nccs2)nc1-c1ccccc1 [4a] | 93 to 94 | did not induce a significant effect on the capsid mobility | No effect | – | – |
| CCOC(=O)c1c(C)nc(-c2nccs2)nc1-c1ccc(F)cc1 [4b] | – | did not induce a significant effect on the capsid mobility | No effect | – | – |
| CCCCCC[n+]1ccc(C)cc1.Cc1ccc(S(=O)(=O)[O-])cc1 [7a] | – | did not induce a significant effect on the capsid mobility | No effect | – | The Highest Non-Toxic Concentration (BHK-21 cells; [5]): 50 µM |
| CCCCCCCCCCCCCCCC[n+]1ccc(C)cc1.Cc1ccc(S(=O)(=O)[O-])cc1 [7b] | – | did not induce a significant effect on the capsid mobility | No effect | – | – |
| O=C1OCC2=C1C(c1ccc(F)cc1Cl)N=C(c1ncc(F)cc1F)N2 (stereo not shown) [compound 5] | – | misfolding of the HBV capsid | HBc accumulation, aggregates/or incorrect capsid structures | 50 | Type of effect on HBV capsid assembly in dose-dependent experiments [3]: dose-dependent HBc products accumulation |
| CCOC(=O)C1=C(C)NC(c2nccs2)=CC1c1ccc(F)cc1Cl (stereo not shown) [compound 6] | – | did not induce a significant effect on the capsid mobility | No effect | – | – |
